Results from BindingDB's records for doi:10.1002/cbic.201200524 (Mcgill University, 2012).
pKd: −log10 of the molar value.

Each molecule was assayed against Cytochrome P450 2E1 (Homo sapiens, UniProt P05181) (assay: Spectral Binding Assay).
Text: All UV/Vis spectra of the enzyme-ligand complexes were obtained on a Cary 5000 UV/Vis spectrophotometer.

Cytochrome P450 2E1, sequence (P05181 whole entry): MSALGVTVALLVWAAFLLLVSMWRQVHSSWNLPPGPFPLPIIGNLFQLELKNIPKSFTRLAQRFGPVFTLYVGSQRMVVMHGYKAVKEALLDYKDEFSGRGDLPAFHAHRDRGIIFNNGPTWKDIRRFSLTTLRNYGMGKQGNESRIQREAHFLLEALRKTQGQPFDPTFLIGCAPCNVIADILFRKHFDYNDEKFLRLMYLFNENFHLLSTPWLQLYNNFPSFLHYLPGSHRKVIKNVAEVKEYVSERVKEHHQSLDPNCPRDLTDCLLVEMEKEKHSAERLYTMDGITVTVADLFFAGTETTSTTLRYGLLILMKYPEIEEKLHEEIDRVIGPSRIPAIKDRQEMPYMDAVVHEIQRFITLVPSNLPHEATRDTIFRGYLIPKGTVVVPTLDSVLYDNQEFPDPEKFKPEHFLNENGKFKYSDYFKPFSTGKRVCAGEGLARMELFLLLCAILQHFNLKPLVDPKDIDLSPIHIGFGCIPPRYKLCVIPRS

Row | pKd | Structure (SMILES)
1 | 5.85 | CCCCCCOC(=O)c1cccnc1 [Auxiliary substrate, 1a]
2 | 5.59 | CCC(C)CCOC(=O)c1cccnc1 (stereo not drawn) [Auxiliary substrate, 10a]
3 | 5.74 | CC(C)CCCCOC(=O)c1cccnc1 [Auxiliary substrate, 11a]
4 | 5.23 | CCCCCOC(=O)c1cccnc1 [Auxiliary substrate, 12a]
5 | 5.68 | CCCCCCCCOC(=O)c1cccnc1 [Auxiliary substrate, 14a]
6 | 5.89 | CC/C=C/CCOC(=O)c1cccnc1 [Auxiliary substrate, 16a]
7 | 4.92 | C=CCCOC(=O)c1cccnc1 [Auxiliary substrate, 18a]
8 | 5.80 | O=C(OCC1CCCC1)c1cccnc1 [Auxiliary substrate, 20a]
